Assay results as given in patent publication US9650369B2, “Anti-migration and anti-invasion thiazole analogs for treatment of cellular proliferative disease” (XAVIER UNIVERSITY OF LOUISIANA, priority 2012, dated 2017).
pIC50: −log10 of the molar value.

Experiments:
[1] = antimigration efficacy of additional thiazole compounds (Table 3); assay type: cell-based; conditions: cell line not given; read-out: IC50 (anti-migration)
Text: (§1) The additional thiazole compounds were synthesized and tested for antimigration efficacy and cytotoxicity, with results shown in TABLE 3.

[2] = cytotoxicity of additional thiazole compounds (Table 3); assay type: cell-based; conditions: cell line not given
Text: as §1

pIC50 [1]	SMILES	Cytotoxicity (Survival at 1 μM) [2] [%]
6.48	CCCCn1c(-c2ccc(C)cc2C)csc1=NC(=O)c1ccccc1 [Compound 5n, N-(3-Butyl-4-(2,4-dimethylphenyl)thiazol-2(3H)-ylidene)benzamide]	70.4
6.98	Cn1c(C2CC2)csc1=NC(=O)c1ccccc1 [Compound 15n, N-(4-Cyclopropyl-3-methylthiazol-2(3H)-ylidene)benzamide]	90.7
6.91	O=C(Nc1nc(-c2cccc(Cl)c2)cs1)c1ccccc1 [Compound 14e, N-(4-(3-Chlorophenyl)thiazol-2-yl)benzamide]	71.4
6.12	COc1cc(-c2csc(=NC(=O)c3ccc(Cl)cc3)n2C)cc(OC)c1OC [Compound 15l, 4-Chloro-N-(3-methyl-4-(3,4,5-trimethoxyphenyl)thiazol-2(3H)-ylidene)benzamide]	77.6
6.75	CCCn1c(-c2ccc(C)cc2C)csc1=NC(=O)c1ccccc1 [Compound 5m, N-(4-(2,4-Dimethylphenyl)-3-propylthiazol-2(3H)-ylidene)benzamide]	85.0
5.30	COc1ccc(C(=O)N(C)c2nc(-c3cc(OC)c(OC)c(OC)c3)cs2)c(OC)c1 [Compound 16i, 2,4-Dimethoxy-N-methyl-N-(4-(3,4,5-trimethoxyphenyl)thiazol-2-yl)benzamide]	118.5
7.19	C#CCn1c(-c2ccccc2)csc1=NC(=O)c1ccccc1 [Compound 7d, N-(4-Phenyl-3-(prop-2-yn-1-yl)thiazol-2(3H)-ylidene)benzamide]	63.0
4.85	COc1cccc(C(=O)Nc2nc(-c3cc(OC)c(OC)c(OC)c3)cs2)c1 [Compound 14r, 3-Methoxy-N-(4-(3,4,5-trimethoxyphenyl)thiazol-2-yl)benzamide]	92.6
7.02	Cn1c(-c2cc(C(F)(F)F)cc(C(F)(F)F)c2)csc1=NC(=O)c1ccccc1 [Compound 15f, N-(4-(3,5-Bis(trifluoromethyl)phenyl)-3-methylthiazol-2(3H)-ylidene)benzamide]	79.8
6.97	COc1cc(-c2csc(N(C)C(=O)c3cccc(OC)c3OC)n2)cc(OC)c1OC [Compound 16k, 2,3-Dimethoxy-N-methyl-N-(4-(3,4,5-trimethoxyphenyl)thiazol-2-yl)benzamide]	117.6
5.97	COc1cc(-c2cs/c(=N/C(=O)c3ccccc3)n2C)cc(OC)c1OC [Compound 15g, N-(4-(3,4,5-Trimethoxyphenyl)-3-methylthiazol-2(3H)-yliene)-benzamide]	88.4
< 4.30	COc1cc(-c2csc(NC(=O)c3ccccc3)n2)cc(OC)c1OC [Compound 14g, N-(4-(3,4,5-Trimethoxyphenyl)thiazol-2-yl)benzamide]	95.0
< 4.60	Cc1sc(NC(=O)c2ccccc2)nc1-c1ccccc1 [Compound 14h, N-(5-Methyl-4-phenylthiazol-2-yl)benzamide]	99.0
6.33	COc1cc(C(=O)N(C)c2nc(-c3cc(OC)c(OC)c(OC)c3)cs2)cc(OC)c1OC [Compound 16j, 3,4,5-Trimethoxy-N-methyl-N-(4-(3,4,5-trimethoxyphenyl)thiazol-2-yl)benzamide]	114.8
4.96	C#CCn1c(-c2ccc(C)cc2C)csc1=NC(=O)c1ccccc1 [Compound 5r, N-(4-(2,4-Dimethylphenyl)-3-(prop-2-yn-1-yl)thiazol-2(3H)-ylidene)benzamide]	70.2
6.57	Cn1c(-c2ccccc2Cl)csc1=NC(=O)c1ccccc1 [Compound 15b, N-(4-(2-Chlorophenyl)-3-methylthiazol-2(3H)-ylidene)benzamide]	72.2
